Results published in paper PMC10194981, “Chemosensory protein regulates the behavioural response of Frankliniella intonsa and Frankliniella occidentalis to tomato zonate spot virus–Infected pepper (Capsicum annuum)” (PLOS Pathogens, 2023).

Assays:
Anagrus nilaparvatae = tested on: Anagrus nilaparvatae; parameters: method as in PMID 31300659; conditions: 1:20,000 dilution; cited from earlier work
F. intonsa antennae = test: Electroantennogram (EAG) assay; parameters: species or system Frankliniella intonsa
Procedure: The FintCSP1, FintCSP2, FintOBP, FintOR, FoccCSP, and enhanced green fluorescent protein (EGFP) coding sequences were obtained from GenBank under accession numbers MT199111, MT211602, OK067245, MT211603, AEP27186.1, and U55761.1, respectively. Primers were designed using Primer Premier 5.0, and the T7 promoter sequence (5′-[…]-3′) was added to the 5′ end of each primer (S1 Table). DNA fragments containing T7 promoter sequences were amplified by PCR using pEASY-T1/target gene or pUC-EGFP (preserved in the laboratory) plasmid DNA as template. Then, a double-stranded RNA (dsRNA) was produced from each target gene using the HiScribe T7 Quick High Yield RNA Synthesis Kit (New England Biolabs) according to the manufacturer’s instructions. Six hundred 2-day-old female F. intonsa or two hundred 2-day-old female F. occidentalis adults were anesthetized using CO2 and microinjected with 40 nL (3 μg/μL) dsRNA (dsFintCSP1 dsFintCSP2, dsFintOBP, dsFintOR or dsFoccCSP or dsEGFP) using a CellTram Oil microinjector (Eppendorf, Hamburg, Germany). The injected thrips were kept on broad beans in an artificial climate incubator as described above and used in subsequent RNAi experiments. Three biological replicates were conducted for each treatment with each dsRNA.
At 24 h after dsRNA injection, the electrophysiological responses of F. intonsa antennae to six volatile components (i.e., m-cymene, cis-3-hexenal, (+)-2-carene, trans-2-hexenal, α-phellandrene, and α-humulene) or F. occidentalis antennae to cis-3-hexenal were recorded using EAG. Antennae of female adult thrips were cut off at the base, and the distal terminus was carefully removed. The tested compounds were dissolved in liquid paraffin, with pure liquid paraffin used as a negative control. An Ag-AgCl2 glass electrode and Kaissling electrode solution were used in the experiment according to Tian et al.. The base of the antenna was inserted into the glass capillary filled with electrode solution at the end of the reference electrode; the top of the antenna was connected to the glass capillary at the end of the recording electrode to ensure no bubbles in the glass capillary. After successful connection, the antennae were stimulated with each chemical in the following order: liquid paraffin, volatile compounds, and liquid paraffin. Stimulus time was 0.2 s with each stimulus at 40 s intervals. At least 10 antennae were tested for each volatile compound. The EAG values to volatile compounds were calculated using the following equation: absolute value of EAG reaction = reaction value of the tested sample—average value of two control measurements.

FoccCSP-Thr29Ala = FoccCSP-Thr29Ala (Frankliniella occidentalis, UniProt G4Y3X1, T29A); test: Fluorescence (1-NPN) binding and competitive binding assay, FoccCSP mutant
Procedure: (§1) The binding affinity of FintCSP1 and FoccCSP to the fluorescent probe N-phenyl-1-naphthylamine (1-NPN) was tested using a Spectramax M2 fluorescence spectrometer (Molecular Devices, USA) as reported previously. […] The 1-NPN/FintCSP1 or 1-NPN/FoccCSP mixture was excited at 280 nm, and the emission spectra were recorded at 415 nm. The binding constants (Kd) of FintCSP1 or FoccCSP to 1-NPN were calculated by Scatchard analysis using Prism 5 software (GraphPad, La Jolla, CA, USA). Assuming a protein activity of 100% and that the volatile compound binds to the protein in a 1:1 ratio at saturation, the dissociation constants (Ki) of FintCSP1 or FoccCSP for each ligand were calculated according to the IC50 (the concentration when the ligand replaces 50% of the probe) value of the volatile compounds. The Ki values were calculated according to the following equation: Ki = [IC50]/(1 + [1-NPN]/K1-NPN), where [1-NPN] is the free concentration of 1-NPN, and K1-NPN is the Kd of the 1-NPN/FintCSP1 or 1-NPN/FoccCSP.
(§2) To verify the key amino acids of FintCSP1 and FoccCSP that bind to cis-3-hexenal, six amino acid residues of FintCSP1 were mutated (Lys26Ala, Phe27Ala, Thr28Ala, Glu67Ala, Ser84Ala, and the negative control residue Val132Ala) and nine amino acid residues of FoccCSP were mutated (Lys26Ala, Phe27Ala, Thr28Ala, Thr29Ala, Tyr31Ala, Asp64Ala, Glu67Ala, Gln87Ala, and the negative control residue Val132Ala) with the Fast Mutagenesis System Kit (Transgen Biotech, Beijing, China) using the pET-30a/FintCSP1 and pET-30a/FoccCSP plasmid DNA as template, respectively. Specific primers were designed using Primer Premier 5.0 according to the instructions of the Fast Mutagenesis System Kit (S1 Table). After validation by sequencing, each recombinant variant protein was produced and purified as described above, and their binding affinity to cis-3-hexenal was measured as described above.

FoccCSP-Phe27Ala = FoccCSP-Phe27Ala (Frankliniella occidentalis, UniProt G4Y3X1, F27A); test: as above
Procedure: as §1, §2

FoccCSP-Thr28Ala = FoccCSP-Thr28Ala (Frankliniella occidentalis, UniProt G4Y3X1, T28A); test: as above
Procedure: as §1, §2

FoccCSP-Asp64Ala = FoccCSP-Asp64Ala (Frankliniella occidentalis, UniProt G4Y3X1, D64A); test: as above
Procedure: as §1, §2

FoccCSP-Glu67Ala = FoccCSP-Glu67Ala (Frankliniella occidentalis, UniProt G4Y3X1, E67A); test: as above
Procedure: as §1, §2

Sequence of FoccCSP-Glu67Ala (G4Y3X1 entry or part of it E67A): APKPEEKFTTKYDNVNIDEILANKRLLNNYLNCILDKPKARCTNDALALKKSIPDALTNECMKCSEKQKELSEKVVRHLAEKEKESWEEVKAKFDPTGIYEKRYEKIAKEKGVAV
Sequence of FoccCSP-Asp64Ala (G4Y3X1 entry or part of it D64A): as the sequence (G4Y3X1 entry or part of it E67A) above, with D45A, A48E counted along it
Sequence of FoccCSP-Thr29Ala (G4Y3X1 entry or part of it T29A): as the sequence (G4Y3X1 entry or part of it E67A) above, with T10A, A48E counted along it
Sequence of FoccCSP-Phe27Ala (G4Y3X1 entry or part of it F27A): as the sequence (G4Y3X1 entry or part of it E67A) above, with F8A, A48E counted along it
Sequence of FoccCSP-Thr28Ala (G4Y3X1 entry or part of it T28A): as the sequence (G4Y3X1 entry or part of it E67A) above, with T9A, A48E counted along it

For `CC/C=C\CC=O` [cis-3-hexenal], the “attraction of Anagrus nilaparvatae (in words)” value (Anagrus nilaparvatae) is listed as “attracts Anagrus nilaparvatae”, the EAG peak amplitude (F. intonsa antennae; 10 mg/L in liquid paraffin, excised F. intonsa antennae) is listed as “–0.077 mV” and the “EAG response of FintCSP1-silenced antennae (in words)” value (F. intonsa antennae; dsFintCSP1-injected compared to dsEGFP-injected F. intonsa, 24 h after injection) is listed as “significantly lower response”. The IC50 (FoccCSP-Thr29Ala) was > 100 µM, the “affinity for cis-3-hexenal (in words)” value (FoccCSP-Thr29Ala; FoccCSP-Thr29Ala) was “no affinity” and the IC50 (FoccCSP-Phe27Ala) was > 100 µM. The “affinity for cis-3-hexenal (in words)” value (FoccCSP-Phe27Ala; FoccCSP-Phe27Ala) was “no affinity”, the IC50 (FoccCSP-Thr28Ala) was > 100 µM and the “affinity for cis-3-hexenal (in words)” value (FoccCSP-Thr28Ala; FoccCSP-Thr28Ala) was “no affinity”. For the same compound, the IC50 (FoccCSP-Asp64Ala) was 65.9 ± 0.79 µM, the Ki (FoccCSP-Asp64Ala) was 62.2 ± 0.75 µM and the “binding affinity to cis-3-hexenal (in words)” value (FoccCSP-Asp64Ala; FoccCSP-Asp64Ala compared to the wild-type protein) was “significantly decreased binding affinities”. For the same compound, the IC50 (FoccCSP-Glu67Ala) was 92.9 ± 2.14 µM, the Ki (FoccCSP-Glu67Ala) was 83.7 ± 1.93 µM and the “binding affinity to cis-3-hexenal (in words)” value (FoccCSP-Glu67Ala; FoccCSP-Glu67Ala compared to the wild-type protein) was “significantly decreased binding affinities”.
